Assay results published in patent US20030186997A1, “2,5-Dihydro-pyrazolo[3,4-d]pyrimidin-4-ones with an anticonsulsive action and methods for producing the same” (priority 2000, published 2003).

What was measured:
maximal electroshock [1] = assay: Anticonvulsant action, maximal electroshock (MES), mouse i.p.; assay type: in vivo; conditions: ip, read-out: Action in % of the protected animals
Description: (§1) The compounds according to the invention were tested for their anticonvulsant action in vivo after i.p. administration to mice according to the international customary standard (Pharmac. Weekblad, Sc. Ed. 14, 132 (1992) and Antiepileptic Drugs, Third Ed., Raven Press, New York 1989) (Table 1). [table]

s.c. pentetrazole = assay: Anticonvulsant action, s.c. pentetrazole (PTZ), mouse i.p.; assay type: in vivo; conditions: ip, read-out: Action in % of the protected animals
Description: as §1

[2] = Octanol/water partition coefficient; assay type: physicochemical
maximal electroshock [3] = assay: Maximal electroshock in the rat, p.o.; assay type: in vivo; conditions: po
Description: (§2) This compound is also active in convulsion models using bicuculline and picrotoxin as convulsion-inducing cause. Compound 14 (5-(2-methylbenzyl)-2-methyl-2,5-dihydropyrazolo[3,4-d]pyrimidin-4-one) is likewise strongly anticonvulsant with a large therapeutic breadth (ED50 (rat p.o.) =9 mg/kg, NT50>300 mg/kg). Compound 21 has a similar pharmacological profile (ED50 (rat p.o.) =3 mg/kg, NT50>300 mg/kg).

Neurotoxicity (NT50) = assay type: in vivo; conditions: rat
Description: as §2

bicuculline = assay: Convulsion model using bicuculline; assay type: in vivo; conditions: bicuculline as convulsion-inducing cause
Description: as §2

picrotoxin = assay type: in vivo
Description: as §2

Work on `O=c1c2c[nH]nc2ncn1Cc1ccccc1Cl` [Compound 1, 5-(2-chlorobenzyl)-2,5-dihydropyrazolo[3,4-d]pyrimidin-4-one] yielded a responders at 30 mg/kg (maximal electroshock [1]) of 100%, a responders at 100 mg/kg (s.c. pentetrazole) of 80% and a logP [2] of 1.14. The ED50 (maximal electroshock [3]) was 18 mg/kg, the “NT50 (neurotoxicity)” value (Neurotoxicity (NT50)) was greater than 500 mg/kg and the “activity in convulsion model” value (bicuculline) was “active”. The “activity in convulsion model” value (picrotoxin) was “active” and the melting point was 186 to 187 °C.

Work on `O=c1c2c[nH]nc2ncn1Cc1ccccc1C(F)(F)F` [Compound 8, 5-(2-trifluoromethylbenzyl)-2,5-dihydropyrazolo[3,4-d]-pyrimidin-4-one] yielded a responders at 100 mg/kg (maximal electroshock [1]) of 67%, a responders at 100 mg/kg (s.c. pentetrazole) of 20% and a logP [2] of 0.78. For the same molecule, the melting point was 168 to 171 °C.

`Cc1ccccc1Cn1cnc2nn(C)cc2c1=O` [Compound 14, 5-(2-methylbenzyl)-2-methyl-2,5-dihydropyrazolo[3,4-d]-pyrimidin-4-one] gave a responders at 30 mg/kg (maximal electroshock [1]) of 100%, a responders at 100 mg/kg (s.c. pentetrazole) of 80% and a logP [2] of 1.76. The ED50 (maximal electroshock [3]) was 9 mg/kg and the melting point was 185 to 186 °C.

`COc1ccccc1Cn1cnc2nn(C)cc2c1=O` [Compound 17, 5-(2-methoxybenzyl)-2-methyl-2,5-dihydropyrazolo[3,4-d]-pyrimidin-4-one] gave a responders at 100 mg/kg (maximal electroshock [1]) of 100%, a responders at 300 mg/kg (s.c. pentetrazole) of 100% and a logP [2] of 0.92. It also gave a melting point of 160 to 162 °C.

In the case of `Cn1cc2c(=O)n(Cc3c(F)cccc3F)cnc2n1` [Compound 21, 5-(2,6-difluorobenzyl)-2-methyl-2,5-dihydropyrazolo[3,4-d]pyrimidin-4-one], the responders at 30 mg/kg (maximal electroshock [1]) is reported as 100%, the responders at 100 mg/kg (s.c. pentetrazole) is reported as 80% and the logP [2] is reported as 0.67. For the same molecule, the ED50 (maximal electroshock [3]) was 3 mg/kg and the melting point was 226 to 228 °C.

`CCn1cc2c(=O)n(Cc3c(F)cccc3F)cnc2n1` [Compound 37, 5-(2,6-difluorobenzyl)-2-ethyl-2,5-dihydropyrazolo[3,4-d]-pyrimidin-4-one] gave a responders at 100 mg/kg (maximal electroshock [1]) of 80%, a responders at 300 mg/kg (s.c. pentetrazole) of 20% and a logP [2] of 1.43. It also gave a melting point of 185 to 187 °C.

`CC(C)n1cc2c(=O)n(Cc3c(F)cccc3Cl)cnc2n1` [Compound 43, 5-(2-chloro-6-fluorobenzyl)-2-isopropyl-2,5-dihydropyrazolo[3,4-d]pyrimidin-4-one] gave a responders at 300 mg/kg (maximal electroshock [1]; dose 300 mg/kg) of 100%, a responders at 300 mg/kg (s.c. pentetrazole) of 33% and a logP [2] of 1.88. It also gave a melting point of 159 to 161 °C.
